8 compounds from patent US10669271B2, “Heterocyclic compounds as immunomodulators” (Incyte Corporation, priority 2018, dated 2020) can be followed below.

Where only a bound is given, the exact number is not on record here.

The target in experiment [1] is PD-L1 (Homo sapiens (Human), UniProt Q9NZQ7). As to the kind of experiment: PD-L1 whole blood internalization assay. Format: cell-based. The settings on record: 1 ng/ml human interferon γ, PD-L1 expression on CD14+ cells, read-out: Whole Blood (24 HR) IC50. The procedure: Example D. PD-L1 Whole Blood Internalization Assay
To determine PD-L1 internalization in human whole blood, normal human blood (Biological Specialty Corp, Colmar. Pa.) was incubated in the presence or absence of a concentration range of test compounds and 1 ng/ml human interferon γ (R&D Systems Inc. Minn. […] Blood was then stained with PD-L1 (MIH1, eBioscience; or BD Biosciences San Jose, Calif.), CD14 (Life Technologies, Carlsbad, Calif.) for 30 minutes in the dark at room temperature. Whole Blood/red cells were lysed/fixed (lysis buffer BD Biosciences) for 5 minutes at 37° C. in the dark and then centrifuged at 1600 RPM for 5 minutes. Cells were resuspended in Stain Buffer (BD Bioscience, San Jose, Calif.) and transferred into 96 well round bottom plates (Corning). Cells were gated on CD14+(BD Biosciences) and PD-L1 expression determined by mean fluorescence intensity (MFI) (BD LSRFortessa™ X-20). IC50 determination was performed by fitting the curve of compound percent inhibition versus the log of the compound concentration using the GraphPad Prism 7.0 software.

Experiment [2] addresses PD-1/PD-L1 (Homo sapiens (Human), UniProt Q9NZQ7). Description: Homogeneous Time-Resolved Fluorescence (HTRF) PD-1/PD-L1 binding assay. The settings on record: recombinant human PD-1 and PD-L1, 25° C., pH 7.4. As to the method:
Example A. Homogeneous Time-Resolved Fluorescence (HTRF) PD-1/PD-L1 Binding Assay
The assays were conducted in a standard black 384-well polystyrene plate with a final volume of 20 μL. Inhibitors were first serially diluted in DMSO and then added to the plate wells before the addition of other reaction components. The final concentration of DMSO in the assay was 1%. The assays were carried out at 25° C. in the PBS buffer (pH 7.4) with 0.05% Tween-20 and 0.1% BSA. Recombinant human PD-L1 protein (19-238) with a His-tag at the C-terminus was purchased from AcroBiosystems (PD1-H5229). Recombinant human PD-1 protein (25-167) with Fc tag at the C-terminus was also purchased from AcroBiosystems (PD1-H5257). PD-L1 and PD-1 proteins were diluted in the assay buffer and 10 μL was added to the plate well. Plates were centrifuged and proteins were preincubated with inhibitors for 40 minutes. The incubation was followed by the addition of 10 μL of HTRF detection buffer supplemented with Europium cryptate-labeled anti-human IgG (PerkinElmer-AD0212) specific for Fc and anti-His antibody conjugated to SureLight®-Allophycocyanin (APC, PerkinElmer-AD0059H). After centrifugation, the plate was incubated at 25° C. for 60 min. before reading on a PHERAstar FS plate reader (665 nm/620 nm ratio). Final concentrations in the assay were—3 nM PD1,10 nM PD-L1, 1 nM europium anti-human IgG and 20 nM anti-His-Allophycocyanin. IC50 determination was performed by fitting the curve of percent control activity versus the log of the inhibitor concentration using the GraphPad Prism 5.0 software.

Experiment [3] relates to U2OS/PD-L1 cells and Jurkat-PD-1-SHP cells. Description: Src homology region 2 domain-containing phosphatase (SHP) assay. Format: cell-based. Conditions: Homo sapiens; U2OS/PD-L1 cells with Jurkat-PD-1-SHP cells, 2 hours. The procedure: Example B. Src Homology Region 2 Domain-Containing Phosphatase (SHP) Assay
U2OS/PD-L1 cells (DiscoveRx Corporation) were maintained in McCoy's 5A medium with addition of 10% FBS, 0.25 μg/ml Puromycin. After removing the culture media, the cell medium was replaced with assay medium (RPMI1640 medium with 1% FBS). The U2OS/PD-L1 cells were then added in 384-well black clear bottom assay plate (CELLCOAT® Tissue Culture Plates, Greiner Bio-One) at 5000 cells per well in 20 μL assay medium. Test compounds were prepared by serial dilution in DMSO and 125 nL compound were first transferred to the 384 REMP plate well (Thermofisher) by ECHO liquid handler (Labcyte) followed with addition of 27.5 μL assay medium. 5 μL/well compounds in the assay medium were transferred to the cell plate with 0.05% DMSO in the final assay at 0.5 μM. Jurkat-PD-1-SHP cells (DiscoveRx Corporation) were cultured in RPMI1640 medium supplemented with 10% FBS, 250 μg/ml Hygromycin B, 500 μg/ml G418. After the replacement of culture media with assay medium, 5,000 Jurkat-PD-1-SHP cells in 20 μL were dispensed into each well. The assay plate was incubated at 37° C., 5% CO2 for 2 hours before 2.5 μL PathHunter reagent 1 (DiscoveRx Corporation) were added to each well. The assay plate was shaken for 1 min at 350 rpm in the dark followed with addition of 10 μL PathHunter reagent 2 (DiscoveRx Corporation). Chemiluminescent signal was recorded with TopCount reader (Perkin Elmer) after incubation at room temperature for 1 hour. Wells with DMSO were served as the positive controls and wells containing no cells were used as negative controls. IC50 determination was performed by fitting the curve of percentage of control activity versus the log of the compound concentration using the GraphPad Prism 6.0 software.

In experiment [4] the test system is PD-L1 aAPC/CHO-K1 cells and Jurkat-PD-1-NFAT effector cells. As to the kind of experiment: Nuclear factor of activated T-cells (NFAT) assay. Format: cell-based. The settings on record: Cricetulus griseus; PD-L1 aAPC/CHO-K1 cells with Jurkat-PD-1-NFAT effector cells, 24 hours. The procedure:
Example C. Nuclear Factor of Activated T-Cells (NFAT) Assay
PD-L1 aAPC/CHO-Klcells (Promega) were maintained in F-12 medium with addition of 10% FBS, 200 μg/ml Hygromycin B, 250 μg/ml Geneticin (G418). Jurkat-PD-1-NFAT effector cells (Promega) were cultured in RPMI 1640 medium supplemented with 10% FBS, 100 μg/ml Hygromycin B, 500 μg/ml G418. The culture media of PD-L1 aAPC/CHO-K1 cells were first replaced with assay medium (RPMI1640 medium with 1% FBS). The PD-L1 aAPC/CHO-K1 cells were then added in a white 384-well white clear bottom assay plate (CELLCOAT® Tissue Culture Plates, Greiner Bio-One) at 8000 per well in 10 μL assay medium. Test compounds were prepared by serial dilution in DMSO and 0.8 μL test compounds in DMSO were first transferred to the 384 REMP plate well (Thermofisher) by PlateMate Plus (Thermofisher) followed with addition of 50 μL plating medium. 5 μL compounds in the assay medium were transferred to the cells with 0.4% DMSO in the final assay at 2 μM. After removing the culture media, 10,000 Jurkat-PD-1-NFAT effector cells in 5 μL assay medium was dispensed into each well. The assay plate was incubated at 37° C., 5% CO2 for 24 hours. After the assay plate was equilibrated to room temp for 15 minutes, 20 µL/well of Bio-Glo™ reagent (Promega) were added. After 8 minutes incubation at room temperature, luminescence was read at with Pherastar microplate reader (BMG Labtech). The fold of induction (FOI) was calculated based on the ratio of luminescence normalized to the DMSO wells within each assay plate. The maximum percentage of induction was reported based on the ratio between the highest FOI of each compound and the maximum FOI of control compound within each assay plate. Wells with DMSO were served as the negative controls and wells containing control compound with the highest FOI were used as positive controls. EC50 determination was performed by fitting the curve of percent control activity versus the log of the compound concentration using the GraphPad Prism 6.0 software.

Chain of PD-L1 (Q9NZQ7 19-290): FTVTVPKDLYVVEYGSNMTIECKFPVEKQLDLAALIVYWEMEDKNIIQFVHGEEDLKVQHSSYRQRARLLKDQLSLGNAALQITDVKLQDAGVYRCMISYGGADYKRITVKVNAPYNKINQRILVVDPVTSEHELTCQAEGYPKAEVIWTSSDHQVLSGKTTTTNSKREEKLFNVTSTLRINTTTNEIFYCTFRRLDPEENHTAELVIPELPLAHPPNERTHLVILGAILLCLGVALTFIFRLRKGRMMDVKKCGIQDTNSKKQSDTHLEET
Chain of PD-1/PD-L1 (Q9NZQ7 19-238): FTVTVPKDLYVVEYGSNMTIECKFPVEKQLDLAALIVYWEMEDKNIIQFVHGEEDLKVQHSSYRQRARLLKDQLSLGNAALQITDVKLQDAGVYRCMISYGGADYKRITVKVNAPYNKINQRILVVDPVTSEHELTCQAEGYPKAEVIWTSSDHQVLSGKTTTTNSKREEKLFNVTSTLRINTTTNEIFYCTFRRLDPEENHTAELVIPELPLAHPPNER

By IC50 is commonly meant the concentration at which inhibition is half-maximal. One may read the EC50 as the concentration giving half of the maximal effect. For `Cc1nc(Nc2cccc(-c3cccc(-c4nc5cc(CN6CC[C@@H](C(=O)O)C6)cc(C#N)c5o4)c3C)c2C)c2ncc(CN3CC[C@@](C)(O)C3)cc2n1` [Example 7, (R)-1-((7-cyano-2-(3′-(7-(((R)-3-hydroxy-3-methylpyrrolidin-1-yl)methyl)-2-methylpyrido[3,2-d]pyrimidin-4-ylamino)-2,2′-dimethylbiphenyl-3-yl)benzo[d]oxazol-5-yl)methyl)pyrrolidine-3-carboxylic Acid], the results for the IC50 in experiment [1], in experiment [2] and in experiment [3] were 10 to 100 nM, at most 10 nM and at most 10 nM, respectively. This compound displayed an EC50 in experiment [4] of 10 to 100 nM.
On to `Cc1nc(Nc2cccc(-c3cccc(-c4nc5cc(CN6CCC(C(=O)O)CC6)cc(C#N)c5o4)c3C)c2C)c2ncc(CN3CC[C@](C)(O)C3)cc2n1` [Example 3, (S)-1-((7-cyano-2-(3′-(7-((3-hydroxy-3-methylpyrrolidin-1-yl)methyl)-2-methylpyrido[3,2-d]pyrimidin-4-ylamino)-2,2′-dimethylbiphenyl-3-yl)benzo[d]oxazol-5-yl)methyl)piperidine-4-carboxylic Acid], for which the IC50 in experiment [1] was 10 to 100 nM; in experiment [2], at most 10 nM; in experiment [3], at most 10 nM. Also, the EC50 in experiment [4] lay within 10 to 100 nM.
For the compound `Cc1nc(Nc2cccc(-c3cccc(-c4nc5cc(CN6CCC(C(=O)O)CC6)cc(C#N)c5o4)c3C)c2C)c2ncc(CN[C@@H](C)CO)cc2n1` [Example 4, (S)-1-((7-cyano-2-(3′-(7-((1-hydroxypropan-2-ylamino)methyl)-2-methylpyrido[3,2-d]pyrimidin-4-ylamino)-2,2′-dimethylbiphenyl-3-yl)benzo[d]oxazol-5-yl)methyl)piperidine-4-carboxylic Acid], the IC50 was 10 to 100 nM in experiment [1], at most 10 nM in experiment [2] and at most 10 nM in experiment [3]. For the same compound, in experiment [4], the EC50 was in the range of 10 to 100 nM.
For the compound `Cc1c(Nc2nc(C3CC3)nc3cc(CN4CC[C@@H](O)C4)cnc23)cccc1-c1cccc(-c2nc3cc(CN4CC[C@@H](C(=O)O)C4)cc(C#N)c3o2)c1C` [Example 28, (R)-1-((7-cyano-2-(3′-(2-cyclopropyl-7-(((R)-3-hydroxypyrrolidin-1-yl)methyl)pyrido[3,2-d]pyrimidin-4-ylamino)-2,2′-dimethylbiphenyl-3-yl)benzo[d]oxazol-5-yl)methyl)pyrrolidine-3-carboxylic Acid], the IC50 was 100 to 500 nM in experiment [1], at most 10 nM in experiment [2] and 10 to 100 nM in experiment [3]. The compound also came in with a concentration for a half-maximal effect (EC50) in experiment [4] of 10 to 100 nM.
In the case of `Cc1nc(Nc2cccc(-c3cccc(-c4nc5cc(CN6CC[C@@](C)(C(=O)O)C6)cc(C#N)c5o4)c3C)c2C)c2ncc(CN3CC[C@](C)(O)C3)cc2n1` [Example 13, (R)-1-((7-cyano-2-(3′-(7-(((S)-3-hydroxy-3-methylpyrrolidin-1-yl)methyl)-2-methylpyrido[3,2-d]pyrimidin-4-ylamino)-2,2′-dimethylbiphenyl-3-yl)benzo[d]oxazol-5-yl)methyl)-3-methylpyrrolidine-3-carboxylic Acid], the IC50 in experiment [1] is 10 to 100 nM; in experiment [2], at most 10 nM; in experiment [3] it was at most 10 nM. The compound further returned an EC50 in experiment [4] of 10 to 100 nM.
For the compound `Cc1nc(Nc2cccc(-c3cccc(-c4nc5cc(CN6CCC(C(=O)O)CC6)cc(C#N)c5o4)c3C)c2C)c2ncc(CN3CC[C@@](C)(O)C3)cc2n1` [Example 2, (R)-1-((7-cyano-2-(3′-(7-((3-hydroxy-3-methylpyrrolidin-1-yl)methyl)-2-methylpyrido[3,2-d]pyrimidin-4-ylamino)-2,2′-dimethylbiphenyl-3-yl)benzo[d]oxazol-5-yl)methyl)piperidine-4-carboxylic Acid], the IC50 was 10 to 100 nM in experiment [1], at most 10 nM in experiment [2] and at most 10 nM in experiment [3]. The same compound returned a half-maximal effective concentration (EC50) in experiment [4] of 10 to 100 nM.
With `Cc1nc(Nc2cccc(-c3cccc(-c4nc5cc(CN6CCC(C(=O)O)CC6)cc(C#N)c5o4)c3C)c2C)c2ncc(CNC[C@H](C)O)cc2n1` [Example 5, (S)-1-((7-cyano-2-(3′-(7-((2-hydroxypropylamino)methyl)-2-methylpyrido[3,2-d]pyrimidin-4-ylamino)-2,2′-dimethylbiphenyl-3-yl)benzo[d]oxazol-5-yl)methyl)piperidine-4-carboxylic Acid], the IC50 in experiment [1] is 100 to 500 nM; in experiment [2] it was at most 10 nM; in experiment [3] it was 10 to 100 nM. In experiment [4], this compound displayed an EC50 of 10 to 100 nM.
With `Cc1c(Nc2nc(C(F)F)nc3cc(CN4CC[C@@H](O)C4)cnc23)cccc1-c1cccc(-c2nc3cc(CN4CC[C@@](C)(C(=O)O)C4)cc(C#N)c3o2)c1C` [Example 18, (R)-1-((7-cyano-2-(3′-(2-(difluoromethyl)-7-(((R)-3-hydroxypyrrolidin-1-yl)methyl)pyrido[3,2-d]pyrimidin-4-ylamino)-2,2′-dimethylbiphenyl-3-yl)benzo[d]oxazol-5-yl)methyl)-3-methylpyrrolidine-3-carboxylic Acid], the figures for the IC50 in experiment [1], in experiment [2] and in experiment [3] were 10 to 100 nM, at most 10 nM and at most 10 nM, respectively. This compound showed an EC50 in experiment [4] of 10 to 100 nM.
